Data taken from patent publication US20210222225A1, “Medium for Disk Diffusion Method to Evaluate Antibiotic Sensitivity” (priority 2018, published 2021).

Tested on: ABA A14_S
Experiment: Colistin disk diffusion, guanidine hydrochloride medium, A14_S
Format: cell-based, Acinetobacter baumannii
Settings: 30% agar
Description: A concentration of agar particles (BD Diagnostic, Sparks, Md., USA) in Mueller-Hinton broth medium (BD Diagnostic) was adjusted to 5.1 g/L, which is 30% of 17 g/L, and guanidine hydrochloride was added to a concentration of 500 μg/ml, 50 μg/ml, or 5 μg/ml. Then, solidification was performed. On a surface of each medium thus prepared was evenly inoculated each of colistin-susceptible (S) or -resistant (R) Acinetobacter baumannii (ABA) strain, colistin-susceptible (S) or -resistant (R) Klebsiella pnemoniae (KPN) strain, and colistin-susceptible (S) or -resistant (R) Pseudomonas aeruginosa (PAE) strain, and a colistin disk was placed thereon. Then, pictures of a growth inhibition zone, which had been formed clear, around the disk were taken for each strain, and the results are illustrated in FIGS. 8 to 10.

Measured: Disk diffusion (mm)

colistin
15 mm: guanidine hydrochloride 5 μg/ml | guanidine hydrochloride 50 μg/ml | guanidine hydrochloride 500 μg/ml
